From US6355677B1, “Adrenoleukodystrophy treatments and drug screening” (The Johns Hopkins University, priority 1998, dated 2002)
Several values for one entry are separate records, joined by “and”; a condition that tells them apart may be missing. Identical values can stand only once. Entries after “also recorded” stand apart in the source; their conditions may differ.

Experiments:
[1] = test system: human X-ALD lymphoblastoid cells; test: VLCFA (C24:0 and C26:0) levels in cultured cells, capillary GC; type: cell-based
Protocol: (§1) Cell lines derived from X-ALD patients and X-ALD mice were grown in MEM (fibroblasts) or RPMI (lymphoblastoid cells) supplemented with fetal calf serum (10%), penicillin (100 U/ml), streptomycin (100 U/ml) and glutamine (2 mM). […] Cells in the second flask were grown without drug for the same length of time and served as controls. The media were changed every 3-4 days.
(§2) For VLCFA measurements, total lipids were extracted, converted to methyl esters, purified by TLC and subjected to capillary GC analysis as described. Duplicate assays were set up independently and were assayed on different days. C24:0 β-oxidation activity of human and mouse fibroblasts and human lymphoblastoid cells was determined by measuring their capacity to degrade [1-^14C]-C24:0 fatty acid (American Radiolabeled Chemicals, St. Louis, Mo.) to water-soluble products as described. Phytanic acid oxidation was measured as described. Cells were incubated with [2,3-^3H]-phytanic acid for 24 hours, and the release of ^3H-H2O to the aqueous medium was determined (activity in pmol/hr per mg protein).

[2] = test system: human X-ALD primary fibroblasts; test: as above; type: cell-based; settings: for C24:0 level, Treated / C26:0 Percent Correction / C26:0 level, Treated / C24:0 Percent Correction: X-ALD human primary fibroblasts
Protocol: as §1, §2

[3] = test system: mouse X-ALD primary fibroblasts; test: as above; type: cell-based; settings: 5 mM; for C24:0 Percent Correction / C24:0 level, Treated / C26:0 Percent Correction / C26:0 level, Treated: X-ALD mouse primary fibroblasts
Protocol: as §1, §2

[4] = test system: X-ALD human lymphoblastoid cells; test: C24:0 β-oxidation ([1-14C]-C24:0 degradation); type: cell-based; settings: 5 mM 4PBA for 6 days
Protocol: as §1, §2

[5] = test system: X-ALD human primary fibroblasts; test: C24:0 β-oxidation ([1-14C]-C24:0 degradation); type: cell-based; settings: 5 mM 4PBA for 6 days
Protocol: as §1, §2

[6] = test system: X-ALD mouse primary fibroblasts; test: C24:0 β-oxidation ([1-14C]-C24:0 degradation); type: cell-based; settings: 5 mM 4PBA for 6 days
Protocol: as §1, §2

[7] = test system: human primary fibroblasts; test: Peroxisome counting by anti-SKL (PTS1) immunofluorescence; type: cell-based; settings: 5 mM
Excerpt: Peroxisomes were made visible with immunofluorescence using a polyclonal antibody to the C-terminal tripeptide (SKL) peroxisome targeting signal 1 (PTS1), which is present in most peroxisomal matrix proteins. […] We counted the peroxisomes after 10 days of treatment (Table 3). Slides were scanned visually and cells categorized as having low, medium or high numbers of peroxisomes. For each cell line, the number of peroxisomes is the mean of three ‘low’, four ‘medium’ and three ‘high’ cells (Table 3). There was no difference between control cells and X-ALD cells in either the number of peroxisomes per cell or in the response to 4-PBA. […] The 2.4-fold increase in the number of peroxisomes per cell was statistically significant (P<0.0000001, two-tailed Student's t-test). Peroxisome numbers obtained with an antibody against a peroxisomal membrane protein (Pex14p) gave similar results (data not shown).
The anti-SKL (PTSI) antibody was a gift from S. Gould and the anti-Pex11α antibody was a gift from S. Mihalik. To count peroxisomes, we photographed immunofluorescence-stained cells after focusing on the cell nucleus, and determined the peroxisome number per cell with the aid of a colon counter after projecting the slides to enlarge the image.

X-ALD mice = test: In vivo efficacy: VLCFA levels in brain and adrenal glands after dietary treatment; design: species or system mouse
Protocol: To measure the in vivo efficacy of 4-PBA, we supplemented mouse chow and water with 4-PBA.
In vivo delivery of 4-PBA to X-ALD mice. 4-PBA was delivered to X-ALD mice in their regular chow and water. 4-PBA chow was prepared by B'OServ (Holton Industries, Frenchtown, N.J.). […] Brains and adrenal glands from normal LD and X-ALD/4-PBA mice were collected for VLCFA analysis as described.

ΔF508-CFTR = settings: nasal epithelia cells, homozygous or heterozygous ΔF508-CFTR; cited from earlier work
[8] = X-ALD human lymphoblastoid cells, 5 mM, exposure 6 days
[9] = X-ALD human lymphoblastoid cells, 5 mM, exposure 10 days
[10] = between 1 mM and 5 mM, data not shown
[11] = dietary 4-PBA (about 70 mg per day), 6 weeks

With `O=C(O)CCCc1ccccc1` [4-PBA, 4-Phenyl butyrate] the “Time of treatment until C24:0 and C26:0 levels were normalized” value ([1]; 5 mM, human lymphoblastoid cells) was at most 10 days, the “C24:0 level, Treated” value [1, 8] was 0.65 ± 0.17% of total fatty acids and the “C26:0 Percent Correction” value [1, 8] was 71%. The “C26:0 level, Treated” value [1, 8] was 0.11 ± 0.05% of total fatty acids, the “C24:0 Percent Correction” value [1, 9] was 161% and the “C24:0 level, Treated” value [1, 9] was 0.54 ± 0.16% of total fatty acids. For the same compound, the “C26:0 Percent Correction” value [1, 9] was 90%, the “C26:0 level, Treated” value [1, 9] was 0.09 ± 0.05% of total fatty acids and the “Effect on VLCFA levels over concentration range” value [1, 10] was “dose-dependent decrease”. For the same compound, the “Time of treatment until C24:0 levels were normalized” value ([2]; 5 mM, human X-ALD fibroblasts) was at most 10 days, the “C24:0 level, Treated” value ([2]; 5 mM, exposure 1 day) was 2.65 ± 0.36% of total fatty acids and the “C26:0 Percent Correction” value ([2]; 5 mM, exposure 1 day) was 2%. For the same compound, the “C26:0 level, Treated” value ([2]; 5 mM, exposure 1 day) was 0.51 ± 0.14% of total fatty acids, the “C24:0 Percent Correction” value ([2]; 5 mM, exposure 1 day, untreated X-ALD 0%, normal 100%) was −1% and the “C24:0 Percent Correction” value ([2]; 5 mM, exposure 6 days) was 81%. For the same compound, the “C24:0 level, Treated” value ([2]; 5 mM, exposure 6 days) was 1.82 ± 0.28% of total fatty acids, the “C26:0 Percent Correction” value ([2]; 5 mM, exposure 6 days) was 26% and the “C26:0 level, Treated” value ([2]; 5 mM, exposure 6 days) was 0.41 ± 0.04% of total fatty acids. For the same compound, the “C24:0 Percent Correction” value ([2]; 5 mM, exposure 12 days) was 155%, the “C24:0 level, Treated” value ([2]; 5 mM, exposure 12 days) was 1.43 ± 0.34% of total fatty acids and the “C26:0 Percent Correction” value ([2]; 5 mM, exposure 12 days) was 33%. For the same compound, the “C26:0 level, Treated” value ([2]; 5 mM, exposure 12 days) was 0.31 ± 0.06% of total fatty acids, the “C24:0 Percent Correction” value ([2]; 5 mM, exposure 16 days) was 96% and the “C24:0 level, Treated” value ([2]; 5 mM, exposure 16 days) was 1.69 ± 0.27% of total fatty acids. The “C26:0 Percent Correction” value ([2]; 5 mM, exposure 16 days) was 38%, the “C26:0 level, Treated” value ([2]; 5 mM, exposure 16 days) was 0.28 ± 0.03% of total fatty acids and the “C24:0 Percent Correction” value ([2]; 5 mM, exposure 22 days) was 128%. The “C24:0 level, Treated” value ([2]; 5 mM, exposure 22 days) was 1.52 ± 0.14% of total fatty acids, the “C26:0 Percent Correction” value ([2]; 5 mM, exposure 22 days) was 47% and the “C26:0 level, Treated” value ([2]; 5 mM, exposure 22 days) was 0.27 ± 0.04% of total fatty acids. For the same compound, the “Effect on VLCFA levels over concentration range” value [2, 10] was “dose-dependent decrease”, the “Time of treatment until C24:0 and C26:0 levels were normalized” value ([3]; mouse fibroblasts) was at most 10 days and the “C24:0 Percent Correction” value ([3]; exposure 5 days) was 115%. The “C24:0 level, Treated” value ([3]; exposure 5 days) was 1.10 ± 0.15% of total fatty acids, the “C26:0 Percent Correction” value ([3]; exposure 5 days) was 92% and the “C26:0 level, Treated” value ([3]; exposure 5 days) was 0.07 ± 0.03% of total fatty acids. For the same compound, the “C24:0 Percent Correction” value ([3]; exposure 9 days) was 152%, the “C24:0 level, Treated” value ([3]; exposure 9 days) was 0.87 ± 0.04% of total fatty acids and the “C26:0 Percent Correction” value ([3]; exposure 9 days) was 100%. The “C26:0 level, Treated” value ([3]; exposure 9 days) was 0.05 ± 0.01% of total fatty acids, the “C24:0 β-oxidation, Increase (treated over untreated)” value (shortened to “C24:0 β-oxidation, Increase”) [4] was “twofold to threefold” and the “C24:0 β-oxidation, Treated (mean specific activity)” value (shortened to “C24:0 β-oxidation, Treated”) [4] was 0.18 ± 0.03 nmol/hr per mg protein. The “C24:0 β-oxidation, Increase” value [5] was “twofold to threefold”, the “C24:0 β-oxidation, Treated” value [5] was 0.39 ± 0.07 nmol/hr per mg protein and the “C24:0 β-oxidation, Increase” value [6] was “twofold to threefold”. The “C24:0 β-oxidation, Treated” value [6] was 0.28 ± 0.03 nmol/hr per mg protein, the “Increase in number of peroxisomes per cell” value ([7]; 10 days) was 2.4 fold and the “Peroxisomes per cell after exposure” value ([7]; 10 days, five X-ALD and four control cell lines combined, 416±27 before exposure) was 1014±108 peroxisomes per cell. For the same compound, the “Increase in peroxisome number” value ([7]; human X-ALD primary fibroblasts, 8 days) was “approximately twofold”, the “Correction of brain C24:0” value (X-ALD mice; [11]) was “complete correction; also recorded: complete normalization” and the “Correction of brain C26:0” value (X-ALD mice; [11]) was 78% and 80%. The “Adrenal gland VLCFA (C24:0 and C26:0) levels” value (X-ALD mice; dietary 4-PBA, 4 weeks) was “substantial reduction”, the “Brain VLCFA (C24:0 and C26:0) levels” value (X-ALD mice; dietary 4-PBA, 4 weeks) was “substantial reduction” and the “Effect on ΔF508-CFTR” value (ΔF508-CFTR) was “rescue of ΔF508-CFTR from premature degradation”.
